The numbers were not newly measured in patent US7074430B2, “Controlled release tramadol tramadol formulation” (Euro-Celtique S.A., priority 1994, dated 2006), which cites them from elsewhere.

Structures are written as SMILES.

For the series the following is noted: value taken for the deconvolution technique.

For `COc1cccc([C@@]2(O)CCCC[C@H]2CN(C)C)c1` (racemic) [tramadol, (±)-trans-2-[(dimethylamino)methyl]-1-(3-methoxyphenyl) cyclohexanol], the elimination half life was 7.8 h.
